Data on three molecules can be found in patent US20100267054A1, “Measuring The Activity Of Proteases” (priority 2007, published 2010).

Assay [1] deals with protease activity of human serum. In words: Effect of E64 and CA-074 on the protease activities of human sera with and without treatment by immobilised papain (AFC method). The assay is classed as biochemical. The note with it: two normal human sera; for protease activity of sera after pre-treatment with immobilised papain, effect of inhibitor: pre-treated with immobilised papain; for small proteolytic activity of sera without pre-treatment, effect of inhibitor: without pre-treatment with immobilised papain. As for the experimental part: FIG. 7 Effect of the inhibitors E64 and CA074 on the activity of purified cathepsin B or the protease activities of sera with and without treatment by immobilised papain. The tests were carried out with the AFC method.
(§1) The measurement of the fluorescence was done with 96-well microtiter plates by means of a fluorescence reader (for measurements with AMC: excitation at 355 nm, fluorescence at 450 nm) (for measurements with AFC: excitation at 400 nm, fluorescence at 508 nm).
(§2) In the AFC-method the assay run for the measurement of the activity was carried out in test samples at 37° C. The content of the test sample was transferred into the microtiter plate just before the measurement of the fluorescence.
The enzymatic activities of cathepsin B in small concentrations were measured of two “normal” human sera with and without pre-treatment with immobilised papain (FIG. 7).

For assay [2], the target named is T1, cathepsin B (Bos taurus, UniProt P07688).
T1 construct: cathepsin B (purified from the bovine spleen, 10 units/ml) was used in the test; from tissue; host or cells: bovine spleen
Briefly: Inhibition of cathepsin B by cystatin A. As to conditions: 700 nM cystatin A; 5 and 10 ng cathepsin B per assay run. The format is biochemical, bovine.
Excerpt: a1. Introduction: The activity measurement of cathepsin B is based on the cleavage of a dipeptide substrate • Z-Arg-Arg-fluorophore→Z-Arg-Arg+fluorophore (Z=protecting group, Arg=basic amino acid arginine)
as §1, §2
The inhibition of cathepsin B by the known inhibitor cystatin A was tested in vitro with two different cathepsin B concentrations.

For the molecule `CCCNC(=O)[C@H]1O[C@@H]1C(=O)N[C@H](C(=O)N1CCC[C@H]1C(=O)O)[C@@H](C)CC` [CA-074], in assay [1], the “protease activity of sera after pre-treatment with immobilised papain, effect of inhibitor” value is on record as “reduced this activity to the value which was measured in the samples not pre-treated” and the “small proteolytic activity of sera without pre-treatment, effect of inhibitor” value is reported as “inhibited neither”.
Taken in the same sequence, the figures for `CC(C)C[C@H](NC(=O)[C@H]1O[C@@H]1C(=O)O)C(=O)NCCCCN=C(N)N` [E64] were “reduced this activity to the value which was measured in the samples not pre-treated” and “inhibited neither”.

B1: cystatin A: known protein inhibitor of cathepsin B (protein, UniProt P01040 1-98, looked up)
Cystatin-A: MIPGGLSEAKPATPEIQEIVDKVKPQLEEKTNETYGKLEAVQYKTQVVAGTNYYIKVRAGDNKYMHLKVFKSLPGQNEDLVLTGYQVDKNKDDELTGF
For B1, the “inhibition of cathepsin B” value in assay [2] is over 95%.
